Results: patent US20180057505A1, “BICYCLIC HETEROARYL COMPOUNDS USEFUL AS INHIBITORS OF THE PAR-2 SIGNALING PATHWAY” (VERTEX PHARMACEUTICALS INCORPORATED, priority 2015, published 2018)
pIC50: −log10 of the molar value.

Assays:
Type in all cases: cell-based
[1] = system: Thrombin-stimulated Ca2+ response in HT-29 cells; test: Ca FLIPR TETRA assay, ANTAGONIST mode, activator 1 U/mL Thrombin; settings: HT-29 cells, activator 1 U/mL Thrombin
Outline: (§1)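 HT-29 cells in 1% FBS/McCoy's overnight, loaded with FLIPR Calcium 5 dye (45 min 37 °C, 15 min r.t.); compounds added and read for intrinsic Ca2+ activation, then after 30 min r.t. stimulated with fixed activator: 8 μM SLIGKV, 0.6 μM UTP, 1 U/mL thrombin or 3.1 U/mL trypsin (final).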

PAR2 (HT-29 cells) [2] = target: T1, PAR2 (HT-29 cells) (Homo sapiens, UniProt P55085); test: Ca FLIPR TETRA assay, ANTAGONIST mode, activator 8 μM SLIGKV; settings: HT-29 cells; activator 8 μM SLIGKV; Method A: maximal concentration of antagonist 0.1, 1 or 2 μM
T1 construct: host or cells: HT-29
T1 sequence (P55085 26-397): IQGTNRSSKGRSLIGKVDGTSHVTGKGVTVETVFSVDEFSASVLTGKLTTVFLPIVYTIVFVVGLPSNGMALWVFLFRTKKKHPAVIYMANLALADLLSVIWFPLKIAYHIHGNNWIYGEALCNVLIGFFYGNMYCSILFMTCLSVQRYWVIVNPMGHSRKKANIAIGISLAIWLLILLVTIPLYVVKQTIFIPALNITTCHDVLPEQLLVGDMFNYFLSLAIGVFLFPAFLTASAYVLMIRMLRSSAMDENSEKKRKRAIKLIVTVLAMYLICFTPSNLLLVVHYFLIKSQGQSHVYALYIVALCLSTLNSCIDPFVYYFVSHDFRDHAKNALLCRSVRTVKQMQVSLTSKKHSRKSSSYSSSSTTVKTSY
Outline: as §1

PAR2 (HT-29 cells) [3] = target: T1, PAR2 (HT-29 cells); test: Ca FLIPR TETRA assay, ANTAGONIST mode, activator 3.1 U/mL trypsin; settings: HT-29 cells; activator 3.1 U/mL trypsin; Method A: maximal concentration of antagonist 0.1, 1 or 2 μM
Outline: as §1

[4] = system: UTP-stimulated Ca2+ response in HT-29 cells; test: Ca FLIPR TETRA assay, ANTAGONIST mode, activator 0.6 μM UTP; settings: HT-29 cells, activator 0.6 μM UTP
Outline: as §1

| Structure (SMILES) | pIC50 ([1]; Homo sapiens) | pIC50 (PAR2 (HT-29 cells) [2]) | pIC50 (PAR2 (HT-29 cells) [3]) | pIC50 ([4]; Homo sapiens) | pIC50 [1] | pIC50 [4] |
| --- | --- | --- | --- | --- | --- | --- |
| CC1(C)CCC(c2cc(C(C)(C)C)c3oc(C(=O)N4CCN(C(=O)c5ccc(C(=O)O)cn5)CC4(C)C)cc3n2)CC1 [Example I-379] | < 5.70 | 7.59 | 7.25 | < 5.70 |  |  |
| CC1(C)CCC(c2cc(C(C)(C)C)c3oc(C(=O)N4CCN(C(=O)c5ccc(C(=O)O)nc5)CC4(C)C)cc3n2)CC1 [Example I-380] | < 5.70 | 6.68 | 6.62 | < 5.70 |  |  |
| CC(C)(C)c1cc(-c2ccc(Cl)c(F)c2)nc2cc(C(=O)N3CCN(c4ccc(F)c(C(=O)O)n4)CC3(C)C)oc12 [Example I-381] | < 5.70 | 9.05 | 8.57 | < 5.70 |  |  |
| Cc1coc(N2CCN(C(=O)c3cc4nc(C5CCC(C)(C)CC5)cc(C(C)(C)C)c4o3)C(C)(C)C2)n1 [Example I-382] | < 5.70 | 6.92 | 7.00 | < 5.70 |  |  |
| Cc1cccc(C2CCN(C(=O)c3cc4nc(-c5ccc(Cl)cc5)cc(C(C)(C)C)c4o3)C(C)(C)C2)n1 (stereo not shown) [Example I-383] |  | 7.72 | 7.92 |  | < 5.70 | < 5.70 |
| Cc1nc(C(=O)O)cnc1C1CCN(C(=O)c2cc3nc(C4CCC(C)(C)CC4)cc(C(C)(C)C)c3o2)C(C)(C)C1 (stereo not shown) [Example I-384] |  | 8.60 | 8.66 |  | < 5.70 | < 5.70 |
| Cc1nc(C)c(N2CCN(C(=O)c3cc4nc(-c5ccc(Cl)cc5)cc(C(C)(C)C)c4o3)C(C)(C)C2=O)o1 [Example I-386] | < 5.70 | 7.30 | 7.40 | < 5.70 |  |  |
| Cc1cncc(N2CCN(C(=O)c3cc4nc(-c5ccc(Cl)cc5)cc(C(C)(C)C)c4o3)C(C)(C)C2)n1 [Example I-387] | < 5.70 | 7.92 | 8.00 | < 5.70 |  |  |
| Cc1cnc(N2CCN(C(=O)c3cc4nc(-c5ccc(Cl)cc5)cc(C(C)(C)C)c4o3)C(C)(C)C2)nc1 [Example I-388] | < 5.70 | 7.44 | 7.55 | < 5.70 |  |  |
| Cc1nccc(N2CCN(C(=O)c3cc4nc(-c5ccc(Cl)cc5)cc(C(C)(C)C)c4o3)C(C)(C)C2)n1 [Example I-389] | < 5.70 | 7.66 | 7.64 | < 5.70 |  |  |
| Cc1cc(N2CCN(C(=O)c3cc4nc(-c5ccc(Cl)cc5)cc(C(C)(C)C)c4o3)C(C)(C)C2)ncn1 [Example I-390] | < 5.70 | 7.72 | 7.90 | < 5.70 |  |  |
| CC1(C)CCC(c2cc(C(C)(C)C)c3oc(C(=O)N4CCN(c5ncc(C(=O)O)cc5F)CC4(C)C)cc3n2)CC1 [Example I-391] | < 6.00 | 9.40 | 9.40 | 6.00 |  |  |
| Cc1nc(C(=O)O)cnc1N1CCN(C(=O)c2cc3nc(-c4ccc(Cl)cc4)cc(C(C)(C)C)c3o2)C(C)(C)C1 [Example I-392] | < 5.70 | 8.42 | 8.55 | < 5.70 |  |  |
| CC(C)(C)c1cc(-c2ccc(Cl)cc2)nc2cc(C(=O)N3CCN(c4ncc(C(=O)O)cc4F)CC3(C)C)oc12 [Example I-393] | < 6.00 | 9.40 | 9.52 | 6.07 |  |  |
| Cc1cccnc1N1CCN(C(=O)c2cc3nc(-c4ccc(Cl)cc4)cc(C(C)(C)C)c3o2)C(C)(C)C1 [Example I-394] | < 5.70 | 7.24 | 7.26 | < 5.70 |  |  |
| Cc1ccc(N2CCN(C(=O)c3cc4nc(-c5ccc(Cl)cc5)cc(C(C)(C)C)c4o3)C(C)(C)C2)nc1 [Example I-395] | < 5.70 | 7.25 | 7.39 | < 5.70 |  |  |
| CC(C)(C)c1cc(-c2ccc(Cl)c(F)c2)nc2cc(C(=O)N3CCN(c4ncc(C(=O)O)cc4F)CC3(C)C)oc12 [Example I-396] | 6.00 | 9.52 | 9.52 | 5.97 |  |  |
| Cc1ccc(C(=O)O)nc1C1CCN(C(=O)c2cc3nc(-c4ccc(Cl)cc4)cc(C(C)(C)C)c3o2)C(C)(C)C1 (stereo not shown) [Example I-397] |  | 9.22 | 9.22 |  | < 6.00 | 6.12 |
| Cc1cc(N2CCN(C(=O)c3cc4nc(C5CCC(C)(C)CC5)cc(C(C)(C)C)c4o3)C(C)(C)C2)ncc1C(=O)O [Example I-398] | < 6.00 | 9.40 | 9.30 | 6.00 |  |  |

| Structure (SMILES) | pIC50 ([1]; Homo sapiens) | pIC50 (PAR2 (HT-29 cells) [2]) | pIC50 (PAR2 (HT-29 cells) [3]) | pIC50 ([4]; Homo sapiens) | pIC50 [1] | pIC50 [4] |
| --- | --- | --- | --- | --- | --- | --- |
| Cc1cc(N2CCN(C(=O)c3cc4nc(-c5ccc(Cl)cc5)cc(C(C)(C)C)c4o3)C(C)(C)C2)ncc1C(=O)O [Example I-399] | < 6.00 | 9.40 | 9.22 | 6.07 |  |  |
| Cc1cc(N2CCN(C(=O)c3cc4nc(-c5ccc(Cl)c(F)c5)cc(C(C)(C)C)c4o3)C(C)(C)C2)ncc1C(=O)O [Example I-400] | 6.00 | 9.52 | 9.40 | 6.09 |  |  |
| Cc1cc(C(=O)O)nc(N2CCN(C(=O)c3cc4nc(-c5ccc(Cl)cc5)cc(C(C)(C)C)c4o3)C(C)(C)C2)n1 [Example I-401] | 6.02 | 9.52 | 9.30 | 6.15 |  |  |
| CC(C)(C)c1cc(-c2ccc(Cl)cc2)nc2cc(C(=O)N3CCN(c4cnccn4)CC3(C)C)oc12 [Example I-402] | < 5.70 | 7.68 | 7.82 | < 5.70 |  |  |
| Cc1ccnc(N2CCN(C(=O)c3cc4nc(-c5ccc(Cl)cc5)cc(C(C)(C)C)c4o3)C(C)(C)C2)n1 [Example I-403] | < 5.70 | 7.64 | 7.62 | < 5.70 |  |  |
| CC(C)(C)c1cc(-c2ccc(Cl)cc2)nc2cc(C(=O)N3CCN(c4ncccn4)CC3(C)C)oc12 [Example I-404] | < 5.70 | 7.60 | 7.80 | < 5.70 |  |  |
| CC(C)(C)c1cc(-c2ccc(Cl)c(F)c2)nc2cc(C(=O)N3CCN(c4ccc(C(=O)O)cn4)C(=O)C3(C)C)oc12 [Example I-405] | 6.12 | 8.74 | 8.77 | 6.24 |  |  |
| CC(C)(C)c1cc(-c2ccc(Cl)c(F)c2)nc2cc(C(=O)N3CCN(c4ccn[nH]4)C(=O)C3(C)C)oc12 [Example I-406] | < 5.70 | 8.00 | 8.06 | < 5.70 |  |  |
| CC(C)(C)c1cc(-c2ccc(Cl)cc2)nc2cc(C(=O)N3CCN(c4ccn[nH]4)C(=O)C3(C)C)oc12 [Example I-407] | < 5.70 | 7.77 | 7.77 | < 5.70 |  |  |
| Cc1cc(C(=O)O)nc(N2CCN(C(=O)c3cc4nc(C5CCC(C)(C)CC5)cc(C(C)(C)C)c4o3)C(C)(C)C2)n1 [Example I-408] | 6.07 | 9.15 | 9.00 | 6.29 |  |  |
| Cc1cc(C(=O)O)nc(N2CCN(C(=O)c3cc4nc(-c5ccc(Cl)c(F)c5)cc(C(C)(C)C)c4o3)C(C)(C)C2=O)n1 [Example I-409] |  | 9.52 | 9.30 |  | < 6.00 | 6.25 |
| Cc1nc(N2CCN(C(=O)c3cc4nc(-c5ccc(Cl)cc5)cc(C(C)(C)C)c4o3)C(C)(C)C2)ncc1C(=O)O [Example I-410] |  | 9.22 | 9.05 |  | < 6.00 | < 6.00 |
| Cc1nc(N2CCN(C(=O)c3cc4nc(-c5ccc(Cl)c(F)c5)cc(C(C)(C)C)c4o3)C(C)(C)C2)ccc1C(=O)O [Example I-411] | < 5.70 | 9.70 | 9.52 | < 5.70 |  |  |
| CC(C)(C)c1cc(-c2ccc(Cl)c(F)c2)nc2cc(C(=O)N3CCN(c4ccncn4)CC3(C)C)oc12 [Example I-412] | < 5.70 | 7.88 | 7.82 | < 5.70 |  |  |
| CC1(C)CCC(c2cc(C(C)(C)C)c3oc(C(=O)N4CCN(c5ccc(C(=O)O)cn5)CC4(C)C)cc3n2)CC1 [Example I-413] | 6.09 | 9.22 | 9.10 | 6.09 |  |  |
| CC1(C)CCC(c2cc(C(C)(C)C)c3oc(C(=O)N4CCN(c5ccnc(C(=O)O)n5)CC4(C)C)cc3n2)CC1 [Example I-414] | < 5.70 | 8.07 | 7.80 | < 5.70 |  |  |
| CC(C)(C)c1cc(-c2ccc(Cl)cc2)nc2cc(C(=O)N3CCN(c4ccnc(C(=O)O)n4)CC3(C)C)oc12 [Example I-415] | < 5.70 | 7.72 | 7.72 | < 5.70 |  |  |
| CC1(C)CCC(c2cc(C(C)(C)C)c3oc(C(=O)N4CCN(C(=O)CC(C)(C)C(=O)O)CC4(C)C)cc3n2)CC1 [Example I-416] | < 5.79 | 9.40 | 9.15 | < 5.79 |  |  |
